Experimental data: patent US20120295982A1, “TREATING HUMAN MALE COPD PATIENTS WITH ORAL BEDORADRINE” (MediciNova, Inc., priority 2011, published 2012)
Counter-ions that a name gives are not always drawn.

Experiments:
[1] = Phase I open-label single-dose crossover oral bioavailability / PK test of bedoradrine sulfate in healthy volunteers; type: in vivo, human; conditions: for clearance: CL; for Vd: Vss; for half-life: t½
Description: The test was an open-label, randomized, crossover, single dose test of 600 μg (0.6 mg) bedoradrine sulfate in liquid form administered orally and of 300 μg (0.3 mg) bedoradrine sulfate administered by i.v. infusion. All subjects were in an overnight fasting state. Four male and four female subjects were enrolled in the test and received two administration sequences: Day 1: n=4 received 15-minute intravenous infusion of bedoradrine sulfate (300 μg), the other 4 received an oral administration of bedoradrine sulfate (600 μg); Day 8: the 4 subjects administered i.v. MN-221 on Day 1, received oral bedoradrine sulfate and the 4 subjects administered orally with MN-221 on Day 1, receive i.v. bedoradrine sulfate. Subjects were domiciled in the clinical research unit (CRU) for two nights, beginning on Day minus one (−1), one day prior to dosing. First dosing occurred in the morning of Day 1. Subjects were discharged from the CRU approximately 24 hours after dosing (Day 2). There was a one-week washout between doses and subjects returned to the CRU (Day 7) and were domiciled for two days. On the morning of Day 8, subjects received the opposite dosing state (from Day 1) and subjects were then discharged from the CRU approximately 24 hours after dosing (Day 9). Blood samples for plasma selection and bioanalysis were collected on the dosing days before dosing (baseline) and at 0.25, 1, 1.5, 2, 3, 4, 6, 9, 12, and 24 hr after dosing. The bioanalytical results were obtained following HPLC/MS/MS procedures. The limit of quantitation (LLOQ) for these methods was 30.3 picogram (pg)/mL. Plasma MN-221 concentrations were tabulated separately by subject and sampling time and summarized by descriptive statistics. Descriptive statistics included the sample size, mean, standard deviation, median, range, and the coefficient of variation (CV %). Mean plasma concentration-time profiles were illustrated graphically. All plasma concentrations below the limit of quantitation (BLQ) values occurring at predose and up to the first measurable concentration may otherwise be imputed as 1 pg/mL in some analyses or LLOQ. Pharmacokinetic parameters were calculated from individual plasma concentrations-time data by model-independent analysis methods using WinNonlin™. The following parameters were calculated: Cmax (observed maximum plasma concentration), tmax (observed time of maximum plasma concentration), t1/2 (terminal half-life calculated as ln(2)/λz), AUC0-24 (area under the plasma concentration-time curve calculated using the linear trapezoidal rule from time zero to time 24 hr), vss (volume of distribution at steady state), Cl (clearance), and Oral F % (% oral bioavailability). All pharmacokinetic parameters were summarized using descriptive statistics that included the sample size, mean, standard deviation, median, range, and coefficient of variation. Select t-test or non-parametric statistical analysis was optional.

[2] = tested on: moderate-to-severe COPD patients; experiment: Phase Ib placebo-controlled test of i.v. MN-221 in moderate-to-severe COPD patients; type: in vivo, human; conditions: for FEV1 increase as compared to baseline (average): end of infusion
Description: This example provides certain preferred oral dosages for treating male COPD patients according to this invention. A randomized, double-blind, placebo-controlled phase Ib clinical test evaluated MN-221 in 48 moderate-to-severe COPD patients who received a 1 hour intravenous (i.v.) infusion of MN-221 at three different escalating dose levels (300 micrograms, 600 micrograms, or 1200 micrograms) or placebo.
(a) diagnosed (e.g., by clinical history, 20 pack/year smoking history, physical examination [PE], and spirometry) COPD treated for ≧3 months prior to Screen Visit 1; (b) ≧30% FEV1<80% and FEV1/FVC (forced vital capacity) ratio<0.7 at Screen Visits 1 and 2; and (c) increase in FEV1 of 12%, over the pre-albuterol FEV1 within 30 min after inhalation of up to 4 puffs of albuterol delivered by Metered Dose Inhaler (MDI) with spacer at the Screen Visit 1.
48 subjects with stable, moderate-to-severe chronic obstructive pulmonary disease were administered MN-221. The following does were administered. 10 μg/min for 15 min+3.3 μg/min for 45 min (1-hr infusion total dose 300 μg) or placebo; 20 μg/min for 15 min+6.67 μg/min for 45 min (1-hr infusion total dose 600 μg) or placebo; and 40 μg/min for 15 min+13.3 μg/min for 45 min (1-hr infusion total dose 1,200 μg) or placebo.

[3] = both sexes, human, in vivo, iv, 300 ug, mean
[4] = both sexes, human, in vivo, iv, 300 ug, median
[5] = both sexes, human, in vivo, iv, 300 ug, range
[6] = both sexes, human, in vivo, po, 600 ug, mean
[7] = both sexes, human, in vivo, po, 600 ug, median
[8] = both sexes, human, in vivo, po, 600 ug, range
[9] = both, human, in vivo, po, 600 ug
[10] = female, human, in vivo, po, 600 ug
[11] = human one, in vivo, iv, 300 ug, individual subject
[12] = human two, in vivo, iv, 300 ug, individual subject

For CN(C)C(=O)COc1ccc2c(c1)C[C@@H](NC[C@H](O)c1ccc(O)c(CCO)c1)CC2 [MN-221, bedoradrine sulfate], the “fold lower oral peak level than Cmax after i.v. dosing” value ([1]; 0.6 mg oral vs 0.3 mg i.v.) was > 30 fold, the AUC ([1]; both sexes, human, in vivo, iv, 0.3 mg) was ~13 ng·h/mL and the AUC(0-t) ([1]; both sexes, human, in vivo, iv, 300 ug, AUC 0-24 h, mean) was 13.2 ng·h/mL. It also gave an AUC(0-t) ([1]; both sexes, human, in vivo, iv, 300 ug, AUC 0-24 h, median) of 14.1 ng·h/mL, an AUC(0-t) ([1]; both sexes, human, in vivo, iv, 300 ug, AUC 0-24 h, range) of 9.31 to 15.5 ng·h/mL and a clearance [1, 3] of 322 mL/min. For the same compound, the clearance [1, 4] was 307 mL/min, the clearance [1, 5] was 252 to 425 mL/min and the Cmax ([1]; both sexes, human, in vivo, iv, 300 ug, Cmax, mean) was 10.7 ng/mL. The Cmax ([1]; both sexes, human, in vivo, iv, 300 ug, Cmax, median) was 12.2 ng/mL, the Cmax ([1]; both sexes, human, in vivo, iv, 300 ug, Cmax, range) was 6.76 to 14.8 ng/mL and the Tmax [1, 3] was 0.25 h. For the same compound, the Tmax [1, 4] was 0.25 h, the Vd [1, 3] was 222 L and the Vd [1, 4] was 206 L. The Vd [1, 5] was 149 to 325 L, the half-life [1, 3] was 12.2 h and the half-life [1, 4] was 12.5 h. For the same compound, the half-life [1, 5] was 7.4 to 14.6 h, the AUC(0-t) ([1]; both sexes, human, in vivo, po, 600 ug, AUC 0-24 h, mean) was 1.94 ng·h/mL and the AUC(0-t) ([1]; both sexes, human, in vivo, po, 600 ug, AUC 0-24 h, median) was 1.85 ng·h/mL. The AUC(0-t) ([1]; both sexes, human, in vivo, po, 600 ug, AUC 0-24 h, range) was 1.05 to 3.02 ng·h/mL, the Cmax ([1]; both sexes, human, in vivo, po, 600 ug, Cmax, mean) was 0.305 ng/mL and the Cmax ([1]; both sexes, human, in vivo, po, 600 ug, Cmax, median) was 0.301 ng/mL. The Cmax ([1]; both sexes, human, in vivo, po, 600 ug, Cmax, range) was 0.163 to 0.5 ng/mL, the Tmax [1, 6] was 1.2 h and the Tmax [1, 7] was 1.5 h. It also gave a Tmax [1, 8] of 0.25 to 2 h, a half-life [1, 6] of 16 h and a half-life [1, 7] of 15.2 h. The half-life [1, 8] was 11 to 23 h, the “fold lower AUC following oral dosing than at the i.v. dose” value ([1]; both, human, in vivo) was “about 7 fold” and the “time at which plasma concentrations peaked” value ([1]; both, human, in vivo, iv) was 0.25 h. For the same compound, the “time to reach maximal plasma concentrations” value ([1]; both, human, in vivo, po) was ≤ 2 h, the “Tmax, median” value [1, 9] was “approximately 1.5 hr” and the “t½, mean” value [1, 9] was 16.1 h. For the same compound, the AUC(0-t) ([1]; female, human, in vivo, iv, 300 ug, AUC0-24 h mean) was 14.9 ng·h/mL, the AUC(0-t) ([1]; female, human, in vivo, iv, 300 ug, AUC0-24 h range) was 13.9 to 15.5 ng·h/mL and the Cmax ([1]; female, human, in vivo, iv, 300 ug, Cmax mean) was 13.1 ng/mL. The Cmax ([1]; female, human, in vivo, iv, 300 ug, Cmax range) was 12.1 to 14.8 ng/mL, the “oral F % mean” value [1, 10] was 4.9% and the “oral F % range” value [1, 10] was 3.4-6.1%. It also gave an AUC(0-t) ([1]; female, human, in vivo, po, 600 ug, AUC0-24 h mean) of 1.45 ng·h/mL, an AUC(0-t) ([1]; female, human, in vivo, po, 600 ug, AUC0-24 h range) of 1.05 to 1.79 ng·h/mL and a Cmax ([1]; female, human, in vivo, po, 600 ug, Cmax mean) of 0.221 ng/mL. It also gave a Cmax ([1]; female, human, in vivo, po, 600 ug, Cmax range) of 0.163 to 0.299 ng/mL, an AUC(0-t) ([1]; human one, in vivo, iv, 300 ug, AUC 0-24 h, individual subject) of 10.7 ng·h/mL and a clearance [1, 11] of 423 mL/min. For the same compound, the Cmax ([1]; human one, in vivo, iv, 300 ug, Cmax, individual subject) was 6.76 ng/mL, the Tmax [1, 11] was 0.25 h and the AUC(0-t) ([1]; human one, in vivo, po, 600 ug, AUC 0-24 h, individual subject) was 2.14 ng·h/mL. For the same compound, the Tmax ([1]; human one, in vivo, po, 600 ug, individual subject) was 1.5 h, the AUC(0-t) ([1]; human two, in vivo, iv, 300 ug, AUC 0-24 h, individual subject) was 15.5 ng·h/mL and the clearance [1, 12] was 252 mL/min. For the same compound, the Cmax ([1]; human two, in vivo, iv, 300 ug, Cmax, individual subject) was 14.8 ng/mL, the Tmax [1, 12] was 0.25 h and the Vd [1, 12] was 225 L. For the same compound, the half-life [1, 12] was 14.6 h, the AUC(0-t) ([1]; human two, in vivo, po, 600 ug, AUC 0-24 h, individual subject) was 1.05 ng·h/mL and the Cmax ([1]; human two, in vivo, po, 600 ug, Cmax, individual subject) was 0.163 ng/mL. For the same compound, the “oral F % in men relative to women” value ([1]; human, in vivo, po, 600 ug) was “two-fold greater”, the AUC(0-t) ([1]; male, human, in vivo, iv, 300 ug, AUC0-24 h mean) was 11.5 ng·h/mL and the AUC(0-t) ([1]; male, human, in vivo, iv, 300 ug, AUC0-24 h range) was 9.31 to 14.3 ng·h/mL. For the same compound, the Cmax ([1]; male, human, in vivo, iv, 300 ug, Cmax mean) was 8.42 ng/mL, the Cmax ([1]; male, human, in vivo, iv, 300 ug, Cmax range) was 6.76 to 12.3 ng/mL and the “oral F % mean” value ([1]; male, human, in vivo, po, 600 ug) was 11.1%. It also gave an AUC(0-t) ([1]; male, human, in vivo, po, 600 ug, AUC0-24 h mean) of 2.44 ng·h/mL, an AUC(0-t) ([1]; male, human, in vivo, po, 600 ug, AUC0-24 h range) of 1.91 to 3.02 ng·h/mL and a Cmax ([1]; male, human, in vivo, po, 600 ug, Cmax mean) of 0.389 ng/mL. For the same compound, the Cmax ([1]; male, human, in vivo, po, 600 ug, Cmax range) was 0.303 to 0.5 ng/mL, the “FEV1 increase as compared to baseline (average)” value (shortened to “FEV1 increase”) ([2]; 300 microgram 1-hr i.v. infusion, p=NS) was 9.2% and the “Mean changes in PEFR (L/sec)” value ([2]; 600 and 1200 μg i.v. groups, greatest during 1-3 hr post infusion) was “higher than the all placebo group”. The “Mean changes in PEFR (% predicted)” value ([2]; 600 and 1200 μg i.v. groups, greatest in first 3-4 hr post-infusion) was “higher than the all placebo group”, the “FEV1 increase” value ([2]; 600 microgram 1-hr i.v. infusion, p=0.020) was 16.2% and the “FEV1 increase” value ([2]; 1200 microgram 1-hr i.v. infusion, p=0.0025) was 21.5%. For the same compound, the “FEV1 (%, predicted)” value ([2]; MN-221 treated subjects, i.v. infusion) was “improved” and the tolerability ([2]; i.v. infusions 300-1200 μg, COPD patients) was “well tolerated”.
